Reference: patent US20260191819A1, “COMPOSITION FOR THE TREATMENT OF THE HUMAN PAPILLOMAVIRUS INFECTION (HPV)” (LO.LI. PHARMA S.R.L., priority 2022, published 2026)

What was measured:
viral protein E7 = conditions: cited from earlier work
Hela cells = assay: Annexin V/7-AAD staining, apoptosis in Hela cells; type: cell-based, human; conditions: 48 hr, EGCG 50 mcg/ml, Fol 900 nM, B12 1000 nM, Hyal 10 mcg/ml, FIG. 1
Procedure: The combined action of epigallocatechin gallate (EGCG) and at least one the following other agents: folic acid, vitamin B12, hyaluronic acid, in respect to the single substance, has been tested in vitro in immortalized cervical cancer cell line (HeLa).
The cells were seeded in […] flasks in low glucose DMEM, to which had been added FBS (Fetal Bovine Serum) 10%, L-Glu (L-glutamine) 1%, Pen/Strep (penicillin/streptomycin) 1%. The cells were kept in an incubator at a temperature of 37° C., 5% carbon dioxide and 95% humidity and maintained in culture, as described above, until they reached 50% confluency. On the day of the experiment the cells were treated as follows: • 1. […]
Apoptosis (cell death) was evaluated after 48 hours of treatment using the Annexin V kit. The expression of onco-suppressor genes (p53 and/or pRB) and/or viral E6 and/or E7 genes was evaluated after 48 hours of treatment through use of real time PCR. […]
Hela cells were cultured at confluence into 25 cm^2 flasks (Falcon, Becton Dickinson Labware, Franklin Lakes, NJ, USA) in complete medium. […] After 48 hr of treatment, cell status was assessed through use of the FITC Annexin V Apoptosis Detection Kit I according to the instructions of the manufacturer (BD Pharmingen™). […]

human cervical lesions = conditions: EGCG tablets (200 mg), 8-12 weeks, cited from earlier work
[1] = system: epithelial cervical cell line infected with high-risk HPV (TLC1 and cervical cancer lines such as Hela and Me180); conditions: dose-dependent manner; cited from earlier work
p53 protein = conditions: cited from earlier work
cell model in vitro = conditions: cited from earlier work
vaginal atrophy = conditions: 12 post-menopausal women, 3-month treatment; cited from earlier work
[2] = cytology, colposcopy, histology, HPV DNA test

Substance | level of viral protein E7 expression (viral protein E7) | apoptosis (cell death) compared to control (Hela cells) | treated women with improvement of general clinical status (human cervical lesions; 88 women) [%] | women with moderate lesions responding positively to the treatment (human cervical lesions; [2]) [%] | women with serious lesions responding positively to the treatment (human cervical lesions; [2]) [%] | apoptosis, i.e., cell death [1] | cellular growth [1] | level of p53 protein expression (p53 protein) | process of wound healing in comparison with the control (cell model in vitro) | mucous membrane (vaginal atrophy) | symptoms related to vaginal atrophy (itching, burning, and dyspareunia) (vaginal atrophy)
(−)-epigallocatechin gallate [EGCG] | reduces that of the viral protein E7 | no differences in apoptosis levels | 60 | 100 | 71 | promotes apoptosis | inhibits cellular growth | increases the level of p53 protein expression | – | – | –
hyaluronic acid | – | significantly increased apoptosis | – | – | – | – | – | – | significantly accelerates the process of wound healing | restores the mucous membrane | dramatically reducing symptoms
